# Test results from patent publication US7008627B1, “Use of complexes for the preparation of compositions for the treatment of sensitive skin, preparation process and hypoallergenic compositions” (Johnson & Johnson Consumer France, priority 1996, dated 2006).
# Where “and” joins values, the source holds several entries; their conditions need not be identical. Identical values can stand only once.
# Assays:
# [1] = test system: nitro derivatives (NO2^−); assay: Production of nitro derivatives by macrophages after stimulation by IFN-γ + LPS; format: cell-based, human; settings: for Production of nitro derivatives (NO2^−), value between brackets: Table 5A, macrophages not stimulated by IFN-γ + LPS, + 10 mg/ml of the product; for effect on the production of nitro derivatives: macrophages stimulated by IFN-γ and LPS
# Excerpt: (§1) The activities of the test products are therefore investigated with respect to human macrophage and keratinocyte cultures which are or are not stimulated by intereferon-γ+lipopolysaccharide (non-specific inflammation or by IL-4 (allergic inflammation). This type of stimulation places the cells in the context of a pro-oxidizing response (generation of NO or superoxide anion free radicals, which can be evaluated by measuring the production of nitrogeneous derivatives) and an immuno-inflammatory response (production of cytokines such as TNF-α).
# (§2) The following products were used during this study: Escherichia coli LPS (Sigma), used at 1 μg/ml. IFN-γ and IL-4 are sourced from Immugenex (Los Angeles Calif.) and are used respectively at 1000 U/ml and 10 ng/ml, the monoclonal IgEs are sourced from Stallergene (Fresnes, France) and the anti-IgEs are from Nordic (Tilburg, Holland).
# (§3) The macrophage cells are obtained from the peripheral blood of normal donors (non-allergic). The mononuclear cells are isolated on a ficoll gradient and the ring of lymphoid cells is recovered and washed three times and the cells are then cultured so as to cause the macrophage cells to adhere. These cells are recovered after adhering for 1 hour and are cultured (10^6 cells/ml/well). If appropriate, in the case of stimulation by IL-4, the presence of the IgE receptor (CD23) at the surface of the cells is verified by immunolabelling.
# (§4) The cells are activated by the combination of IFN-γ and LPS for 3 to 4 days and the supernatants of these cultures are then recovered in order to quantitatively determine the nitrogeneous derivatives and TNF-α. Likewise, during stimulation by IgE, the cells are first activated by IL-4, so as to induce the CD23, and are then subsequently cultured and stimulated by the IgE-containing immune complexes for 3 to 5 days before recovering the different supernatants. In all the cases, cellular viability is achieved on conclusion of these cultures. In the specific case of macrophages, a long-term (7 to 12 days) viability study was carried out, so as to determine the protective effects of these products. Quantitative determination of the nitrogenous derivatives is carried out using the Griess approach and the TNF level is measured by using quantitative determination kits from Medgënix (Fleurus, Belgium).
# (§5) In this study, the product H37 (10 mg/ml) is added 30 min before stimulation by IFN-γ+LPS.
# (§6) In this study, the products (10 mg/ml or 1/100 v/v) are added 30 min before stimulation by IFN-γ+LPS. In none of the cases have these products shown a cytotoxic activity.
# [2] = test system: nitro derivatives (NO2^−); assay: Production of nitro derivatives by keratinocytes after stimulation by IFN-γ + LPS; format: cell-based, human; settings: for Production of nitro derivatives (NO2^−), value between brackets / Production of nitro derivatives (NO2^−): Table 5A, + 10 mg/ml of the product; for Production of nitro derivatives (NO2^−), value between brackets: keratinocytes not stimulated by IFN-γ + LPS; for Production of nitro derivatives (NO2^−): keratinocytes stimulated by IFN-γ + LPS, Expt-1 to Expt-4; for effect on the production of nitro derivatives / NO: keratinocytes stimulated by IFN-γ and LPS
# Excerpt: as §1, §2
# (§7) The confluent keratinocyte cultures are trypsinized and transferred into 24-well plates in fresh medium at the cellular density of 10^5 cells/ml/well. If appropriate, in the case of stimulation by IL-4, the presence of the IgE receptor (CD23) at the surface of the cells is verified by immunolabeling.
# as §4, §5, §6
# TNF [3] = assay: Production of TNF by macrophages after stimulation by IFN-γ + LPS; format: cell-based, human; settings: for effect on the production of TNF: macrophages stimulated by IFN-γ and LPS
# Excerpt: as §1, §2, §3
# as §4, with “In all the cases, cellular viability is achieved on conclusion of these cultures. In the specific case of macrophages, a long-term (7 to 12 days) viability study was carried out, so as to determine the protective effects of these products.” left out, “Belgium). […]” for “Belgium).”
# TNF [4] = assay: Production of TNF by keratinocytes after stimulation by IFN-γ + LPS; format: cell-based, human; settings: for Production of TNF: keratinocytes stimulated by IFN-γ + LPS, Expt-1 to Expt-4; for effect on the production of TNF: keratinocytes stimulated by IFN-γ and LPS
# Excerpt: as §1, §2, §7, §4, §5, §6
# [5] = test system: nitro derivatives (NO2^−); assay: Production of nitro derivatives by macrophages after stimulation by IL-4 and IgE-containing immune complexes; format: cell-based, human; settings: for Production of nitro derivatives (NO2^−): macrophages stimulated by IgE-containing immune complexes (IL-4), Expt-1 to Expt-4
# Protocol: (§8) To evaluate the allergic inflammation, the cells are activated by IL-4, which induces the CD23 receptor, and then by IgE-containing immune complexes. In all cases, the cellular supernatants are analysed after the activation.
# as §2, §3, §4
# On completion of this culturing period, 30 to 80% of the keratinocytes and of the macrophages express CD23. The individual variations are in no case the reflection of a different allergic situation between these individuals.
# After the CD23 has been taken up by IgE-containing immune complexes, the production of a large number of mediators and cytokines (in particular TNF) and of products resulting from the oxidative metabolism, such as nitrogenous derivatives, is induced. This stimulation redefines in vitro an allergic-type inflammatory reaction.
# (§9) On completion of this culturing period, 30 to 80% of the keratinocytes and of the macrophages express CD23. The individual variations are in no case the reflection of a different allergic situation between these individuals. […]
# [6] = test system: nitro derivatives (NO2^−); assay: Production of nitro derivatives by keratinocytes after stimulation by IL-4 and IgE-containing immune complexes; format: cell-based, human
# Protocol: as §8, §2, §7
# (§10) The cells are activated by the combination of IFN-γ and LPS for 3 to 4 days and the supernatants of these cultures are then recovered in order to quantitatively determine the nitrogeneous derivatives and TNF-α. […] Quantitative determination of the nitrogenous derivatives is carried out using the Griess approach and the TNF level is measured by using quantitative determination kits from Medgënix (Fleurus, Belgium). […]
# TNF [7] = assay: Production of TNF by macrophages after stimulation by IL-4 and IgE-containing immune complexes; format: cell-based, human
# Protocol: as §8, §2
# as §3, with “If appropriate, in the case of stimulation by IL-4, the presence of the IgE receptor (CD23) at the surface of the cells is verified by immunolabelling.” left out
# as §10
# TNF [8] = assay: Production of TNF by keratinocytes after stimulation by IL-4 and IgE-containing immune complexes; format: cell-based, human
# Protocol: as §8, §2, §7, §4, §9
# [9] = test system: keratinocytes and macrophages; assay: Overall anti-inflammatory activity (non-specific and allergic) on stimulated keratinocytes and macrophages; format: cell-based, human; settings: conclusion from the IFN-γ + LPS (non-specific) and IL-4/IgE (allergic) models
# Excerpt: as §1, §8
# The cells are activated by the combination of IFN-γ and LPS for 3 to 4 days and the supernatants of these cultures are then recovered in order to quantitatively determine the nitrogeneous derivatives and TNF-α. […] Quantitative determination of the nitrogenous derivatives is carried out using the Griess approach and the TNF level is measured by using quantitative determination kits from Medgënix (Fleurus, Belgium).
# keratinocytes = assay: Dose effect of K18 on the inflammatory functions of the keratinocytes (FIG. 1); format: cell-based, human
# Protocol: FIG. 1: Dose effect of carboxymethyl-β-glucan with respect to the inflammatory functions of the keratinocytes.
# Consequently, the effects of the product K18 were evaluated as a function of the dose. The results are illustrated in FIG. 1.
# LTB4 = assay: Summary table: anti-inflammatory activity, LTB4; format: cell-based; settings: result in words
# Excerpt: (§11) It is possible in particular to operate on keratinocytes and macrophage cells because these are cells which are essential for the development of a local inflammatory reaction. Moreover, macrophages are particularly advantageous cells because, due to the fact that these are resident cells in the skin, they regulate not only local inflammatory reactions but they also regulate the immune responses by their ability to present the antigen and to produce a great number of cytokines which regulate local immunity. These macrophages are also involved in communications with the circulatory system which can, if appropriate, mobilize different cell types (monocytes, neutrophils, eosinophils and T lymphocytes), thus increasing the non-specific and specific defensive power of the tissue under consideration.
# as §1
# PGE2 = assay: Summary table: anti-inflammatory activity, PGE2; format: cell-based; settings: result in words
# Excerpt: as §11, §1
# IL-1α = assay: Summary table: anti-inflammatory activity, IL-1α; format: cell-based; settings: result in words
# Excerpt: as §11, §1
# TNF-α = assay: Summary table: anti-inflammatory activity, TNF-α; format: cell-based, human; settings: result in words
# Excerpt: as §11, §1
# [10] = test system: peroxidation of the lipids; assay: Summary table: anti-free radicals activity, peroxidation of the lipids; settings: result in words
# NO = assay: Summary table: anti-free radicals activity, NO; format: cell-based, human; settings: result in words
# Excerpt: as §11, §1
# catalase = assay: Summary table: anti-free radicals activity, catalase; settings: result in words
# Excerpt: (§12) Enzymes which are active in endogenous defence systems against free radicals are, for example, SOD (or superoxide -disumtase), catalase or glutathione peroxidase; attempts will be made to stimulate the production of these enzymes or they can be introduced exogeneously.
# glutathione peroxidase = assay: Summary table: anti-free radicals activity, glutathione peroxidase; settings: result in words
# Excerpt: as §12
# [11] = test system: mixed lympho-epidermal cultures (MLEC); assay: Summary table: anti-allergic activity, mixed lympho-epidermal cultures (MLEC), lymphocyte proliferation; format: cell-based; settings: result in words
# Excerpt: The activity of the components is also confirmed on mixed lympho-epidermal cultures (MLEC).
# In the skin, Langherans cells indeed play an essential role in the […] of the antigen and keratinocytes generate factors which are involved in the immune response, thus constituting a cutaneous immune system. MLECs make it possible to determine the immuno-modulatory properties of substance by measuring the lymphocyte proliferation induced by the antigen-presenting allogenic epidermal cells, with or without treatment by the substance.
# [12] = Table 5B, + 10 mg/ml of the product
# [13] = Table 6A, + 10 mg/ml of the product
# [14] = keratinocytes stimulated by IL-4
substance,measurement,setting,value
Carboxymethyl-β-glucan [K18],"Production of nitro derivatives (NO2^−), value between brackets",[1],1 µM and 2 µM
same,effect on the production of nitro derivatives,[1],high ability to inhibit
same,"Production of nitro derivatives (NO2^−), value between brackets",[2],1 µM
same,Production of nitro derivatives (NO2^−),[2],13 µM and 14 µM and 11 µM and 7 µM
same,effect on the production of nitro derivatives / NO,[2],high ability to inhibit
same,effect on the production of TNF,TNF [3],efficiently inhibit
same,Production of TNF,TNF [4]; [12],130 pg/mL and 95 pg/mL and 85 pg/mL and 82 pg/mL
same,effect on the production of TNF,TNF [4],efficiently inhibit
same,"Production of nitro derivatives (NO2^−), value between brackets","[5]; Table 6A, macrophages not stimulated by IgE-containing immune complexes, + 10 mg/ml of the product",2 µM and 4 µM
same,Production of nitro derivatives (NO2^−),[5]; [13],7 µM and 6 µM and 10 µM
same,effect on the production of nitro derivatives,[5]; macrophages stimulated by IL-4,inhibitory activity
same,"Production of nitro derivatives (NO2^−), value between brackets","[6]; Table 6A, keratinocytes not stimulated by IgE-containing immune complexes, + 10 mg/ml of the product",2 µM and 4 µM
same,effect on the production of nitro derivatives,[6]; [14],inhibitory activity
same,effect on the production of TNF,TNF [7]; macrophages stimulated by IL-4,inhibitory activity
same,effect on the production of TNF,TNF [8]; [14],inhibitory activity
same,anti-inflammatory activity,[9],non-specific and allergic-type anti-inflammatory activity
same,generation of TNF as a function of the dose,keratinocytes,"inhibits, in a dose-dependent way"
same,generation of nitro derivatives as a function of the dose,keratinocytes,"inhibits, in a dose-dependent way"
poly-β(1→3)-glucopyranose [K17],"Production of nitro derivatives (NO2^−), value between brackets",[1],2 μM and 1 μM and 1.5 μM and 2 (2) μM
same,effect on the production of nitro derivatives,[1],high ability to inhibit
same,"Production of nitro derivatives (NO2^−), value between brackets",[2],2 µM and 1 µM
same,Production of nitro derivatives (NO2^−),[2],15 µM and 16 µM and 8 µM
same,effect on the production of nitro derivatives / NO,[2],high ability to inhibit
same,Production of TNF,"TNF [3]; Table 5B, macrophages stimulated by IFN-γ + LPS, + 10 mg/ml of the product, Expt-1 to Expt-4",605 pg/mL and 902 pg/mL and 970 pg/mL and 695 pg/mL
same,effect on the production of TNF,TNF [3],efficiently inhibit
same,"Production of TNF, value between brackets","TNF [4]; Table 5B, keratinocytes not stimulated by IFN-γ + LPS, + 10 mg/ml of the product, ND = non-detectable",95 pg/mL
same,Production of TNF,TNF [4]; [12],125 pg/mL and 98 pg/mL and 100 pg/mL and 70 pg/mL
same,effect on the production of TNF,TNF [4],efficiently inhibit
same,Production of nitro derivatives (NO2^−),[5]; [13],16 µM and 17 µM and 19 µM and 30 µM
same,"Production of TNF, value between brackets","TNF [7]; Table 6B, macrophages not stimulated by IgE-containing immune complexes, + product",45 pg/mL and 41 pg/mL and 32 pg/mL
same,"Production of TNF, value between brackets","TNF [8]; Table 6B, keratinocytes not stimulated by IgE-containing immune complexes, + product",35 pg/mL and 31 pg/mL and 32 pg/mL and 40 pg/mL
same,Production of TNF,"TNF [8]; Table 6B, keratinocytes stimulated by IL-4 / IgE-containing immune complexes, + product, Expt-1 to Expt-4",185 pg/mL and 111 pg/mL and 120 pg/mL and 132 pg/mL
same,anti-inflammatory activity,[9],only has a non-specific anti-inflammatory activity
β-Glucan,Anti-inflammatory: LTB4,LTB4,no effect
same,Anti-inflammatory: PGE2,PGE2,inhibition
same,Anti-inflammatory: IL-1α,IL-1α,inhibition
same,Anti-inflammatory: TNF-α,TNF-α,inhibition
same,Anti-free radicals: peroxidation of the lipids,[10],no effect
same,Anti-free radicals: NO,NO,inhibition
same,Anti-free radicals: catalase,catalase,stimulation
same,Anti-free radicals: glutathione peroxidase,glutathione peroxidase,stimulation
same,Anti-allergic: MLEC,[11],no effect
